Test results reported in patent publication US4431655A, “2,4-Disubstituted-1,2,5-thiadiazol-3(2H)-one antimicrobials” (Merck & Co., Inc., priority 1982, dated 1984).
≈ marks a conversion by molar mass, not a printed value.

Legend:
[1] = Ring stability to hydrolysis, UV absorption changes with time; format: physicochemical; conditions: equal volumes methanol-aqueous phosphate buffer (pH 8); for remaining at 1 h: read-out: % Compound Remaining after 1 hr; for remaining at 16 h: read-out: % Compound Remaining after 16 hr; for remaining at 48 h: read-out: % Compound Remaining after 48 hr; for remaining at 165 h: read-out: % Compound Remaining after 165 hr; for remaining at 336 h: read-out: % Compound Remaining after 336 hr
Procedure: Solutions of these compounds were prepared using equal volumes of methanol-aqueous phosphate buffer (pH 8), and decomposition by cleavage of the heterocyclic ring was monitored using ultraviolet absorption changes with time.

[2] = test system: Diaperthe phaseolorum MF 4668; experiment: In vitro minimal inhibitory concentration in nutrient agar; format: cell-based
[3] = test system: Thielaviopsis basicola MF 3147; experiment: as above; format: cell-based; conditions: Berkeleyomyces basicola, MF3147
[4] = test system: Botrytis cinerea MF 4803; experiment: as above; format: cell-based; conditions: MF4803
[5] = test system: Cladosporium Fulvum MF 3238; experiment: as above; format: cell-based; conditions: Fulvia fulva
[6] = test system: Alternaria citri MF 2970; experiment: as above; format: cell-based; conditions: MF2970
[7] = test system: Phytophthora cambivora MF 3753; experiment: as above; format: cell-based
[8] = test system: Aspergillus niger MF 11; experiment: as above; format: cell-based; conditions: MF11
[9] = test system: Helminthosporium oryzae MF 4806; experiment: as above; format: cell-based; conditions: Bipolaris oryzae, MF4806
[10] = test system: Cercospora beticola MF 4571; experiment: as above; format: cell-based; conditions: MF4571
[11] = test system: Rhizoctonia solani MF 4579; experiment: as above; format: cell-based; conditions: MF4579
[12] = test system: Monilia nigra MF 3084; experiment: as above; format: cell-based; conditions: Moniliella suaveolens, MF3084
[13] = test system: Fusarium oxysporum MF 3413; experiment: as above; format: cell-based; conditions: MF3413
[14] = test system: Sclerotinia sclerotiorum MF 4739; experiment: as above; format: cell-based; conditions: MF4739
[15] = test system: Colletotrichum lagenarium MF 4800; experiment: as above; format: cell-based; conditions: Colletotrichum orbiculare, MF4800
[16] = test system: Penicillium digitatum MF 4590; experiment: as above; format: cell-based; conditions: MF4590
[17] = test system: Helminthosporium maydis MF 4775; experiment: as above; format: cell-based; conditions: Bipolaris maydis, MF4775
[18] = test system: Verticillium dahliae MF 2416; experiment: as above; format: cell-based; conditions: MF2416

| Structure (SMILES) | % Compound Remaining after 0 hr [1] [%] | remaining at 1 h [1] [%] | remaining at 16 h [1] [%] | remaining at 48 h [1] [%] | remaining at 165 h [1] [%] | remaining at 336 h [1] [%] | also measured |
| --- | --- | --- | --- | --- | --- | --- | --- |
| CCCc1nsn(Cc2ccccc2)c1=O | 100 | 100 | 100 | 100 | 90 | 90 | – |
| O=c1cnsn1Cc1ccccc1 | 100 | 100 | 96 | 80 | 50 | 26 | – |
| Cc1nsn(Cc2ccc(Cl)cc2)c1=O [2-[(4-Chlorophenyl)methyl]-4-methyl-1,2,5-thiadiazol-3(2H)-one] | – | – | – | – | – | – | MIC [2]: 0.4 µg/mL (≈ 1.66 µM); MIC [3]: 4 µg/mL (≈ 16.6 µM); MIC [4]: 1 µg/mL (≈ 4.15 µM); MIC [5]: 1 µg/mL (≈ 4.15 µM); MIC [6]: 4 µg/mL (≈ 16.6 µM); MIC [7]: 2 µg/mL (≈ 8.31 µM); MIC [8]: 4 µg/mL (≈ 16.6 µM); MIC [9]: 1 µg/mL (≈ 4.15 µM); MIC [10]: 1 µg/mL (≈ 4.15 µM); MIC [11]: 8 µg/mL (≈ 33.2 µM); MIC [12]: 2 µg/mL (≈ 8.31 µM); MIC [13]: 4 µg/mL (≈ 16.6 µM); MIC [14]: 0.8 µg/mL (≈ 3.32 µM); MIC [15]: 2 µg/mL (≈ 8.31 µM); MIC [16]: 4 µg/mL (≈ 16.6 µM); MIC [17]: 0.4 µg/mL (≈ 1.66 µM); MIC [18]: 4 µg/mL (≈ 16.6 µM) |
| CCCCCCn1snc(C)c1=O [CH3, n-C6 H13, 2-n-Hexyl-4-methyl-1,2,5-thiadiazol-3(2H)-one] | 100 | 100 | 100 | 100 | 100 | 99 | – |
| Cc1nsn(Cc2ccc(Cl)cc2)c1=O [drawing 23] | 100 | 100 | 100 | 97 | 93 | 91 | – |
| O=c1c(Cl)nsn1Cc1ccccc1 [reference compound] | 100 | 48 | 6 | 0 | – | – | – |
| O=c1c(Cl)nsn1Cc1ccc(Cl)cc1 [reference compound] | 100 | – | 0 | 0 | – | – | – |
